# Results as given in publication doi:10.1101/2022.01.16.476523v1, “Novel MBLs inhibitors screened from FDA-approved drug library restore the susceptibility of carbapenems to NDM-1-harbouring bacteria” (biorxiv, 2022).
# Legend:
# Assay in all cases: microbe, parasite or virus in culture
# Parameters in all cases: CLSI broth microdilution MIC in LB, lowest concentration with no visible growth
# E. coli ZJ487 (NDM-1) = test system: T1, E. coli ZJ487 (NDM-1); conditions: Escherichia coli; antibiotic alone; read-out: MIC (μg/mL) Alone
# T1 construct: ZJ487 (NDM-1)
# Experimental: (§1) MIC values were determined according to the broth microdilution guidelines of the Clinical and Laboratory Standards Institute (CLSI). After the tested strains were diluted with LB to a final concentration of 5×10^5 CFUs/mL, various concentrations of meropenem (0-256 μg/mL) and increasing concentrations of inhibitors (0-64 μg/mL) were added to the sterile 96-well plate, and further incubated for 18-24 h at 37 °C. The lowest concentration with no visible growth was considered as the MIC value. The synergistic effect of antibiotics and inhibitors was assessed by determining the fractional inhibitory concentration (FIC) index values according to the formula: FICI = (MIC of inhibitors in combination/MIC of inhibitors) + (MIC of antibiotics in combination/MIC of antibiotics).
# E. coli ZC-YN3 (NDM-1) = test system: T2, E. coli ZC-YN3 (NDM-1); conditions: Escherichia coli; antibiotic alone; read-out: MIC (μg/mL) Alone
# T2 construct: ZC-YN3 (NDM-1)
# Experimental: as §1
# [1] = test system: T3, E. coli BL21 (pET28a-SP-NDM-1); conditions: Escherichia coli, read-out: MIC (μg/mL) Alone
# T3 construct: BL21 (pET28a-SP-NDM-1)
# Experimental: as §1
# [2] = test system: T4, K. pneumoniae QD-KP3 (NDM-1); conditions: Klebsiella pneumoniae; antibiotic alone; read-out: MIC (μg/mL) Alone
# T4 construct: QD-KP3 (NDM-1)
# Experimental: as §1
# E. coli 2Z49 (NDM-5) = test system: T5, E. coli 2Z49 (NDM-5); conditions: Escherichia coli; antibiotic alone; read-out: MIC (μg/mL) Alone
# T5 construct: 2Z49 (NDM-5)
# Experimental: (§2) MIC values were determined according to the broth microdilution guidelines of the Clinical and Laboratory Standards Institute (CLSI). After the tested strains were diluted with LB to a final concentration of 5×10^5 CFUs/mL, various concentrations of meropenem (0-256 μg/mL) and increasing concentrations of inhibitors (0-64 μg/mL) were added to the sterile 96-well plate, and further incubated for 18-24 h at 37 °C. The lowest concentration with no visible growth was considered as the MIC value.
# E. coli 2Z69 (NDM-5) = test system: T6, E. coli 2Z69 (NDM-5); conditions: Escherichia coli; antibiotic alone; read-out: MIC (μg/mL) Alone
# T6 construct: 2Z69 (NDM-5)
# Experimental: as §1
# E. coli ZC-YN7 (NDM-9) = test system: T7, E. coli ZC-YN7 (NDM-9); conditions: Escherichia coli; antibiotic alone; read-out: MIC (μg/mL) Alone
# T7 construct: ZC-YN7 (NDM-9)
# Experimental: as §1
# E. cloacae 20712 (VIM-1) = test system: T8, E. cloacae 20712 (VIM-1); conditions: Enterobacter cloacae; antibiotic alone; read-out: MIC (μg/mL) Alone
# T8 construct: 20712 (VIM-1)
# Experimental: as §1
# E. coli D3 (NDM-1) = test system: T9, E. coli D3 (NDM-1); conditions: Escherichia coli; antibiotic alone; read-out: MIC (μg/mL) Alone
# T9 construct: D3 (NDM-1)
# Experimental: as §1
# E. coli E2 (NDM-9) = test system: T10, E. coli E2 (NDM-9); conditions: Escherichia coli; antibiotic alone; read-out: MIC (μg/mL) Alone
# T10 construct: E2 (NDM-9)
# Experimental: as §1
# [3] = test system: T11, K. pneumoniae QD-KP1 (NDM-1); conditions: Klebsiella pneumoniae; antibiotic alone; read-out: MIC (μg/mL) Alone
# T11 construct: QD-KP1 (NDM-1)
# Experimental: as §2
# [4] = test system: T12, K. pneumoniae QD-KP2 (NDM-1); conditions: Klebsiella pneumoniae; antibiotic alone; read-out: MIC (μg/mL) Alone
# T12 construct: QD-KP2 (NDM-1)
# Experimental: as §2
# E. coli E4 (NDM-5) = test system: T13, E. coli E4 (NDM-5); conditions: Escherichia coli; antibiotic alone; read-out: MIC (μg/mL) Alone
# T13 construct: E4 (NDM-5)
# Experimental: as §1
# E. coli ATCC 25922 = test system: T14, E. coli ATCC 25922; conditions: Escherichia coli, ATCC25922; antibiotic alone; read-out: MIC (μg/mL) Alone
# T14 construct: ATCC 25922
# Experimental: as §2
# E. cloacae 20710 (VIM-1) = test system: T15, E. cloacae 20710 (VIM-1); conditions: Enterobacter cloacae; antibiotic alone; read-out: MIC (μg/mL) Alone
# T15 construct: 20710 (VIM-1)
# Experimental: as §1
# E. coli E1 (NDM-1) = test system: T16, E. coli E1 (NDM-1); conditions: Escherichia coli; antibiotic alone; read-out: MIC (μg/mL) Alone
# T16 construct: E1 (NDM-1)
# Experimental: as §2
compound,measurement,setting,value
CC1(C)S[C@@H]2[C@H](NC(=O)[C@H](N)c3ccc(O)cc3)C(=O)N2[C@H]1C(=O)O [Amoxicillin],MIC,E. coli ZJ487 (NDM-1),512 µg/mL
O=C(N[C@H](CO)[C@H](O)c1ccc([N+](=O)[O-])cc1)C(Cl)Cl [Chloramphenicol],MIC,E. coli ZJ487 (NDM-1),8 µg/mL
CNC(C)[C@@H]1CC[C@@H](N)[C@@H](O[C@H]2[C@H](O)[C@@H](O[C@H]3OC[C@](C)(O)[C@H](NC)[C@H]3O)[C@H](N)C[C@@H]2N)O1 (stereo partly drawn) [Gentamicin],MIC,E. coli ZJ487 (NDM-1),341 ± 121 µg/mL
C[C@@H](O)[C@H]1C(=O)N2C(C(=O)O)=C(SCCNC=N)C[C@H]12 [Imipenem],MIC,E. coli ZJ487 (NDM-1),13.3 ± 3.77 µg/mL
C[C@@H](O)[C@H]1C(=O)N2C(C(=O)O)=C(S[C@@H]3CN[C@H](C(=O)N(C)C)C3)[C@H](C)[C@H]12 [Meropenem],MIC,E. coli ZC-YN3 (NDM-1),21.3 ± 7.54 µg/mL
same,MIC,[1],128 µg/mL
same,MIC,[2],128 µg/mL
same,MIC,E. coli 2Z49 (NDM-5),32 µg/mL
same,MIC,E. coli 2Z69 (NDM-5),32 µg/mL
same,MIC,E. coli ZC-YN7 (NDM-9),13.3 ± 3.77 µg/mL
same,MIC,E. cloacae 20712 (VIM-1),32 µg/mL
same,MIC,E. coli D3 (NDM-1),13.3 ± 3.77 µg/mL
same,MIC,E. coli E2 (NDM-9),53.3 ± 15.1 µg/mL
same,MIC,[3],64 µg/mL
same,MIC,[4],107 ± 30.2 µg/mL
same,MIC,E. coli E4 (NDM-5),53.3 ± 15.1 µg/mL
same,MIC,E. coli ATCC 25922,0.03 µg/mL
same,MIC,E. coli ZJ487 (NDM-1),32 µg/mL
same,MIC,E. cloacae 20710 (VIM-1),32 µg/mL
same,MIC,E. coli E1 (NDM-1),13.3 ± 3.77 µg/mL
CN(C)[C@@H]1C(O)=C(C(N)=O)C(=O)[C@@]2(O)C(O)=C3C(=O)c4c(O)cccc4[C@@](C)(O)[C@H]3C[C@@H]12 [Tetracycline],MIC,E. coli ZJ487 (NDM-1),213 ± 60.3 µg/mL
